In patent US6979686B1, “Substituted pyrazoles as p38 kinase inhibitors” (Pharmacia Corporation, priority 2001, dated 2005):
Where two headings read alike, the source gives them in different places. Each block holds one compound with its values, some of them ahead of it.

Biological target: T1, human p38 kinase alpha (Homo sapiens, UniProt Q16539)
T1 construct: GST (N, cleaved yes); made in house; host or cells: E. coli DH10B
Assay: p38 kinase in vitro assay, phosphorylation of biotinylated PHAS-I with 32P-ATP
Format: biochemical
Conditions: for P38 alpha kinase % inhib @ conc. / P38 alpha kinase IC50, uM or % inhib @ conc. (uM): % inhib: @ 10.0 uM; for inhibition at 1 µM: read-out: P38 alpha kinase % inhib @ conc.; for inhibition at 1 µM / P38 alpha kinase % inhib @ conc. (uM): @ 1.0 uM

[1] = in vitro P38-alpha kinase inhibition, read-out: P38 alpha kinase IC50
[2] = in vitro P38-alpha kinase, read-out: P38 alpha kinase IC50
[3] = activated human p38 kinase alpha, PHAS-I substrate, 50 μM unlabeled ATP, read-out: p38 kinase IC50

T1 sequence (Q16539 whole entry): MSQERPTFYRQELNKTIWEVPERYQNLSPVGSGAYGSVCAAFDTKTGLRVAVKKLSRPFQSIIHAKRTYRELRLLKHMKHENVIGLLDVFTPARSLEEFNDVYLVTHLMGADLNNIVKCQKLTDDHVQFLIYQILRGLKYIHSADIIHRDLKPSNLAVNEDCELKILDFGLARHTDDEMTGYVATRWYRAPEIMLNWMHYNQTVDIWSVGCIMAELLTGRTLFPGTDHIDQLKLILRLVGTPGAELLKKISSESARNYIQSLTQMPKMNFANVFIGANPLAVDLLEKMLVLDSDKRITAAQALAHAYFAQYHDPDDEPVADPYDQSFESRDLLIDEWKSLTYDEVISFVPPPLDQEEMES

IC50 [2]: 100 nM
Compound: CC(=O)Nc1ccc(S(=O)(=O)NCCCc2[nH]nc(-c3ccc(F)cc3)c2-c2ccncc2)cc1 [Example B-1236]

IC50 [1]: 85 nM
Compound: Cc1c(Cl)cccc1S(=O)(=O)NC(C)c1[nH]nc(-c2ccc(F)cc2)c1-c1ccncc1 (stereo not drawn) [Example B-0624]

IC50 [1]: 3930 nM
Compound: CC(NC(=O)Nc1ccc(F)cc1)c1[nH]nc(-c2ccc(F)cc2)c1-c1ccncc1 (stereo not drawn) [Example B-0583]

IC50 [1]: 1120 nM
Compound: COc1ccccc1C(=O)NC(C)c1[nH]nc(-c2ccc(F)cc2)c1-c1ccncc1 (stereo not drawn) [Example B-0544]

IC50 [1]: 45 nM
Compound: CC(NS(=O)(=O)c1ccc2ccccc2c1)c1[nH]nc(-c2ccc(F)cc2)c1-c1ccncc1 (stereo not drawn) [Example B-0617]

IC50 [1]: < 100 nM
Compound: C[C@@H](NS(=O)(=O)c1cccc(Cl)c1)c1[nH]nc(-c2ccc(F)cc2)c1-c1ccncc1 [Example B-0462]

IC50 [1]: 970 nM
Compound: CCCOC(=O)NC(C)c1[nH]nc(-c2ccc(F)cc2)c1-c1ccncc1 (stereo not drawn) [Example B-0602]

IC50 [1]: 760 nM
Compound: Cc1cc(C)c(C(=O)NC(C)c2[nH]nc(-c3ccc(F)cc3)c2-c2ccncc2)c(C)c1 (stereo not drawn) [Example B-0682]

inhibition at 1 µM: 74%
Compound: O=C(NCc1[nH]nc(-c2ccc(F)cc2)c1-c1ccncc1)c1ccc(Br)cc1 [Example B-0007]

IC50 [1]: < 100 nM
Compound: CC(NS(=O)(=O)c1ccc(F)cc1Cl)c1[nH]nc(-c2ccc(F)cc2)c1-c1ccncc1 (stereo not drawn) [Example B-0626]

IC50 [1]: 1200 nM
Compound: CCNC(=O)NC(Cc1ccccc1)c1[nH]nc(-c2ccc(F)cc2)c1-c1ccncc1 (stereo not drawn) [Example B-0788]

IC50 [1]: < 100 nM
Compound: CC(NS(=O)(=O)c1ccc(Cl)cc1)c1[nH]nc(-c2ccc(F)cc2)c1-c1ccncc1 (stereo not drawn) [Example B-0610]

P38 alpha kinase % inhib @ conc. (uM): 79.0% @
Compound: C[C@H](NC(=O)NCCc1[nH]nc(-c2ccc(F)cc2)c1-c1ccncc1)c1ccccc1 [Example B-1042]

IC50 [1]: 85 nM
Compound: CC(NC(=O)c1c(Cl)cccc1Cl)c1[nH]nc(-c2ccc(F)cc2)c1-c1ccncc1 (stereo not drawn) [Example B-0696]

IC50 [1]: < 100 nM
Compound: CC(NS(=O)(=O)c1ccc(Br)cc1)c1[nH]nc(-c2ccc(F)cc2)c1-c1ccncc1 (stereo not drawn) [Example B-0609]

P38 alpha kinase % inhib @ conc. (uM): 72.0% @
Compound: O=C(NCCc1[nH]nc(-c2ccc(F)cc2)c1-c1ccncc1)Nc1cccc(F)c1 [Example B-1046]

IC50 [1]: 7 nM
Compound: CC(NS(=O)(=O)c1ccc(C#N)cc1)c1[nH]nc(-c2ccc(F)cc2)c1-c1ccncc1 (stereo not drawn) [Example B-0656]

IC50 [1]: 500 nM
Compound: C=CCNC(=O)NC(Cc1ccccc1)c1[nH]nc(-c2ccc(F)cc2)c1-c1ccncc1 (stereo not drawn) [Example B-0779]

IC50 [1]: 1600 nM
Compound: CC(C)OC(=O)NC(Cc1ccccc1)c1[nH]nc(-c2ccc(F)cc2)c1-c1ccncc1 (stereo not drawn) [Example B-0751]

IC50 [1]: 3440 nM
Compound: CC(NC(=O)C1CCC1)c1[nH]nc(-c2ccc(F)cc2)c1-c1ccncc1 (stereo not drawn) [Example B-0537]

IC50 [1]: 810 nM
Compound: CC(NC(=O)N(C)c1ccccc1)c1[nH]nc(-c2ccc(F)cc2)c1-c1ccncc1 (stereo not drawn) [Example B-0586]

Further lines, the compound ahead of its results:

Compound: C[C@@H](NS(=O)(=O)Cc1ccccc1[N+](=O)[O-])c1[nH]nc(-c2ccc(F)cc2)c1-c1ccncc1 [Example B-0442]
IC50 [1]: < 100 nM

Compound: Cc1c(-c2ccncc2)c(-c2ccc(F)cc2)nn1CC(=O)NC1CCC1 [Example B-2330]
P38 alpha kinase % inhib @ conc.: 81.0% @

Compound: CCOC(=O)c1cc(-c2ccc(NC(=O)Cn3nc(-c4ccc(F)cc4)c(-c4ccncc4)c3C)cc2)oc1C [Example B-2450]
P38 alpha kinase IC50, uM or % inhib @ conc. (uM): % inhib: 87.0% @

Compound: Cc1cccc(S(=O)(=O)NCCc2[nH]nc(-c3ccc(F)cc3)c2-c2ccncc2)c1 [Example B-1089]
IC50 [1]: < 100 nM

Compound: CC(C)(C)C(=O)N1CCC(c2[nH]nc(-c3ccc(F)cc3)c2-c2ccncc2)CC1 [Example B-1421]
IC50 [2]: 14 nM

Compound: O=C(O)c1n[nH]c(-c2ccc(F)cc2)c1-c1ccncc1 [A-313, Step 1, 5-(4-fluorophenyl)-4-(4pyridinyl)-1H-pyrazole-3-carboxylic acid, monohydrate]
IC50 (Table 8, 1% DMSO, read-out: p38α Kinase Assay IC50): 1340 nM

Compound: COc1ccc2nc(NC(=O)Cn3nc(-c4ccc(F)cc4)c(-c4ccncc4)c3C)sc2c1 [Example B-2414]
P38 alpha kinase IC50, uM or % inhib @ conc. (uM): % inhib: 86.0% @

Compound: O=S(=O)(NC(Cc1ccccc1)c1[nH]nc(-c2ccc(F)cc2)c1-c1ccncc1)c1ccccc1 (stereo not drawn) [Example B-0753]
IC50 [1]: 370 nM

Compound: O=C(NCCc1[nH]nc(-c2ccc(F)cc2)c1-c1ccncc1)c1cccc(C(F)(F)F)c1 [Example B-1123]
IC50 [1]: 2930 nM

Compound: COc1ccc(CC(=O)NC(Cc2ccccc2)c2[nH]nc(-c3ccc(F)cc3)c2-c2ccncc2)cc1 (stereo not drawn) [Example B-0848]
IC50 [1]: 1560 nM

Compound: Cc1cccc(S(=O)(=O)NCCCc2[nH]nc(-c3ccc(F)cc3)c2-c2ccncc2)c1 [Example B-1266]
IC50 [2]: < 100 nM

Compound: CCCOC(=O)NC(Cc1ccccc1)c1[nH]nc(-c2ccc(F)cc2)c1-c1ccncc1 (stereo not drawn) [Example B-0792]
IC50 [1]: 1100 nM

Compound: O=S(=O)(c1ccc(F)cc1F)N1CCC(c2[nH]nc(-c3ccc(F)cc3)c2-c2ccncc2)CC1 [Example B-1454]
IC50 [2]: 1600 nM

Compound: Cc1c(-c2ccncc2)c(-c2ccc(F)cc2)nn1CC(=O)N1CCSC1 [Example B-2383]
P38 alpha kinase % inhib @ conc.: 63.0% @

Compound: N[C@H]1CC[C@@H](c2[nH]nc(-c3ccc(C(F)(F)F)cc3)c2-c2ccncc2)CC1 [Example C-101, 5-cis-(4-AMINOCYCLOHEXYL)-4-(4-PYRIDYL)-3-[4-(TRIFLUOROMETHYL)PHENYL]PYRAZOLE]
IC50 (read-out: P38 alpha kinase IC50): 83 nM

Compound: CC(C)COC(=O)NC(Cc1ccccc1)c1[nH]nc(-c2ccc(F)cc2)c1-c1ccncc1 (stereo not drawn) [Example B-0858]
IC50 [1]: 2100 nM

Compound: O=S(=O)(NCCc1[nH]nc(-c2ccc(F)cc2)c1-c1ccncc1)c1cc(Cl)cc(Cl)c1 [Example B-1092]
IC50 [1]: 270 nM

Compound: N#Cc1cccc(C(=O)N2CCC(c3[nH]nc(-c4ccc(F)cc4)c3-c3ccncc3)CC2)c1 [Example B-1396]
IC50 [2]: 1550 nM

Compound: CCC(=O)N1CCC(c2[nH]nc(-c3ccc(F)cc3)c2-c2ccncc2)CC1 [Example B-1420]
IC50 [2]: < 100 nM

Compound: COc1cc(CNC(=O)Cn2nc(-c3ccc(F)cc3)c(-c3ccncc3)c2C)cc(OC)c1OC [Example B-2297]
IC50 [2]: 3590 nM

Compound: Cc1c(-c2ccncc2)c(-c2ccc(F)cc2)nn1CC(=O)N1CCCCC1 [Example B-2401]
P38 alpha kinase IC50, uM or % inhib @ conc. (uM): % inhib: 78.0% @

Compound: Cc1n[nH]c(-c2ccccc2F)c1-c1ccncc1 [Example A-40]
IC50 [3]: 1300 nM

Compound: Cc1c(-c2ccncc2)c(-c2ccc(F)cc2)nn1CC(=O)Nc1ccccc1C(F)(F)F [Example B-2419]
P38 alpha kinase IC50, uM or % inhib @ conc. (uM): % inhib: 86.0% @

Compound: CC(NS(=O)(=O)c1cc(Cl)c(Cl)s1)c1[nH]nc(-c2ccc(F)cc2)c1-c1ccncc1 (stereo not drawn) [Example B-0629]
IC50 [1]: 200 nM

Compound: O=C(NC(Cc1ccccc1)c1[nH]nc(-c2ccc(F)cc2)c1-c1ccncc1)C1CCCC1 (stereo not drawn) [Example B-0852]
IC50 [1]: 1020 nM

Compound: CCCCC(C)NC(=O)Cn1nc(-c2ccc(F)cc2)c(-c2ccncc2)c1C (stereo not drawn) [Example B-2319]
P38 alpha kinase % inhib @ conc.: 75.0% @

Compound: CCCCCCC(=O)NCc1[nH]nc(-c2ccc(F)cc2)c1-c1ccncc1 [Example B-0015]
inhibition at 1 µM: 82%

Compound: O=C(NCc1[nH]nc(-c2ccc(F)cc2)c1-c1ccncc1)c1cc2ccccc2s1 [Example B-0029]
inhibition at 1 µM: 91%

Compound: O=C(NCCCc1[nH]nc(-c2ccc(F)cc2)c1-c1ccncc1)c1ccc(F)cc1F [Example B-1353]
IC50 [2]: 62 nM

Compound: O=C(c1cc(F)cc(F)c1)N1CCC(c2[nH]nc(-c3ccc(F)cc3)c2-c2ccncc2)CC1 [Example B-1415]
IC50 [2]: 1410 nM

Compound: CCCCC(=O)NCc1[nH]nc(-c2ccc(F)cc2)c1-c1ccncc1 [Example B-0014]
inhibition at 1 µM: 79%

Compound: O=S(=O)(c1ccc(Br)cc1)N1CCC(c2[nH]nc(-c3ccc(F)cc3)c2-c2ccncc2)CC1 [Example B-1472]
IC50 [2]: 930 nM

Compound: Cc1c(Cl)cccc1S(=O)(=O)NCCCc1[nH]nc(-c2ccc(F)cc2)c1-c1ccncc1 [Example B-1252]
IC50 [2]: 170 nM

Compound: Cc1[nH]nc(-c2cccc(F)c2C)c1-c1ccncc1 [Example A-33]
IC50 [3]: 2500 nM

Compound: O=S(=O)(NCCc1[nH]nc(-c2ccc(F)cc2)c1-c1ccncc1)c1ccc(-c2ccon2)s1 [Example B-1113]
IC50 [1]: < 100 nM

Compound: O=C(NCCc1[nH]nc(-c2ccc(F)cc2)c1-c1ccncc1)c1ccccc1I [Example B-0982]
P38 alpha kinase % inhib @ conc. (uM): 65.0% @

Compound: O=C(NCc1[nH]nc(-c2ccc(F)cc2)c1-c1ccncc1)C(=O)c1c[nH]c2ccccc12 [Example B-0018]
inhibition at 1 µM: 60%

Compound: COC(=O)C(Cc1cn(C)cn1)NC(=O)Cn1nc(-c2ccc(F)cc2)c(-c2ccncc2)c1C (stereo not drawn) [Example B-2361]
P38 alpha kinase % inhib @ conc.: 19.0% @

Compound: CCOC(=O)NC(Cc1ccccc1)c1[nH]nc(-c2ccc(F)cc2)c1-c1ccncc1 (stereo not drawn) [Example B-0793]
IC50 [1]: 300 nM

Compound: CC(=O)OC(C)(C)C(=O)NCCCc1[nH]nc(-c2ccc(F)cc2)c1-c1ccncc1 [Example B-1163]
P38 alpha kinase % inhib @ conc. (uM): 74.0% @

Compound: Cc1[nH]nc(-c2cccc(C(F)(F)F)c2)c1-c1ccncc1 [Example A-42]
IC50 [3]: 300 nM

Compound: O=S(=O)(NCCc1[nH]nc(-c2ccc(F)cc2)c1-c1ccncc1)c1ccc2ccccc2c1 [Example B-1103]
IC50 [1]: 94 nM

Compound: CC(C)c1cc(C(C)C)c(C(=O)NC(C)c2[nH]nc(-c3ccc(F)cc3)c2-c2ccncc2)c(C(C)C)c1 (stereo not drawn) [Example B-0674]
IC50 [1]: 2810 nM

Compound: Cc1c(-c2ccncc2)c(-c2ccc(F)cc2)nn1CC(=O)Nc1ccccc1C(=O)NC(C)c1ccccc1 (stereo not drawn) [Example B-2456]
P38 alpha kinase IC50, uM or % inhib @ conc. (uM): % inhib: 86.0% @

Compound: CC1(C)[C@@H]2CC[C@@]1(S(=O)(=O)NCCCc1[nH]nc(-c3ccc(F)cc3)c1-c1ccncc1)C(=O)C2 [Example B-1277]
IC50 [2]: < 100 nM

Compound: O=S(=O)(C=Cc1ccccc1)NC(Cc1ccccc1)c1[nH]nc(-c2ccc(F)cc2)c1-c1ccncc1 (stereo not drawn) [Example B-0755]
IC50 [1]: 2300 nM

Compound: CCCC(=O)COC(=O)NCc1[nH]nc(-c2ccc(F)cc2)c1-c1ccncc1 [Example B-0177]
P38 alpha kinase % inhib @ conc.: 70.0% @

Compound: COCCN(C)C(=O)Cn1nc(-c2ccc(F)cc2)c(-c2ccncc2)c1C [Example B-2374]
P38 alpha kinase % inhib @ conc.: 35.0% @
